Common to all, as to experiment: NCI tumour cell line growth inhibition, 48 h
Test [1] concerns OVCAR-5 ovarian.
Test [2] relates to SK-OV-3 ovarian.
The test system of test [3] is U251 CNS.
The subject of test [4] is RPMI-8226 leukemia.
The subject of test [5] is ACHN renal.
The test system of test [6] is KM12 colon.
Test [7] deals with SK-MEL-5 melanoma.
For test [8], the system named is MDA-MB-435.
Test [9] concerns SR leukemia.
For test [10], the system named is COLO 205 colon.
Test [11] concerns T-47D breast.
Test [12] relates to MDA-MB-231 breast.
The subject of test [13] is SW-620 colon.

SMILES strings stand for the structures. Where “and” joins values, the source holds several entries; their conditions need not be identical. Identical values can stand only once.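 Assay format: 96-well plates, 48-hour exposure. GI50 = concentration required for 50% inhibition of growth. TGI denotes the concentration required for complete inhibition of growth.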

Turning to `COC(=O)/C=C/c1cc(OC)c2oc(-c3ccc(OC)c(OC)c3)c(C(=O)OC)c2c1`, the TGI in test [1], in test [2], in [3], in test [4], in test [5] and in test [6] was over 100 µM each time. For the same molecule, the TGI in [7], in test [8], in [9], in test [10], in test [11] and in [12] was over 100 µM in each case. The TGI in test [13] was over 100 µM.
Consider `O=S(=O)(O)c1cc(O)c2c(O)c(N=Nc3cccc4ccccc34)c(S(=O)(=O)O)cc2c1`, for which the TGI in [1], in [2], in [3], in [4], in [5] and in [6] was over 100 µM each time. In addition, the TGI in test [7], in test [8], in [9], in [10], in [11] and in test [12] was over 100 µM throughout. The TGI in [13] was over 100 µM.
In the case of `COc1cc(OC)c2c(O)c(S(=O)(=O)c3ccc(C)cc3)c(=O)oc2c1`, the TGI in test [1], in test [2], in [3], in test [4], in [5] and in test [6] was over 100 µM in each case. The TGI in test [7], in test [8], in test [9], in test [10], in [11] and in test [12] was over 100 µM each time. In [13], this molecule gave a TGI of over 100 µM.
With `O=c1[nH]c2cc3cccnc3c(Cl)c2nc1CBr`, the TGI in test [1] amounted to 35.9 µM; in [2] it was 65.5 µM; in test [3] it was 32.4 µM; in test [4], 26.3 µM; in [5] it was 20.3 µM; in test [6], 33.3 µM. In addition, the TGI in [7] was 35.6 µM; in test [8] it was 34.8 µM; in test [9], 73.3 µM; in test [10], 26.8 µM; in test [11] it was 28.3 µM; in [12], 34.4 µM. This molecule also gave a TGI in test [13] of 32.5 µM.
Regarding `O/N=C1/C2CC3CC1(c1ccccc1)CC(/C3=N/O)/C2=N\O` (stereo unspecified), the TGI in test [1], in test [2], in [3], in [4], in test [5] and in test [6] was over 100 µM each time. The TGI in test [7], in test [8], in [9], in test [10], in test [11] and in [12] was over 100 µM each time. Also, the TGI in test [13] is over 100 µM.
`Cc1cc(O)ccc1C1(c2ccc(F)cc2)OC(=O)c2ccccc21` (stereo unspecified): the TGI in test [1] is 20.1 µM; in [2], 14.2 µM; in test [3], over 49.9 µM; in test [4], over 62.1 µM; in test [5] it was 12.6 µM; in test [6] it was 7.3 µM. Also, the TGI in test [7] is 24.3 µM; in test [8], 26.9 µM; in test [9], over 76.8 µM; in test [10], 11.2 µM; in test [11] it was 0.974 µM; in test [12], 26.3 µM. The same molecule displayed a TGI in [13] of 25.5 µM.
As for `O=C1CCC2(O)C3Cc4ccc(Oc5nnnn5-c5ccccc5)c5c4C2(CCN3CC2CC2)C1O5` (stereo unspecified), the TGI in test [1], in [2], in test [3], in test [4], in [5] and in test [6] was over 100 µM throughout. Further, the TGI in test [7] was 25.9 µM; in test [8], 37 µM; in test [9], 42.9 µM; in test [10], 32.9 µM; in test [11], over 100 µM; in test [12] it was over 100 µM. In test [13], this molecule displayed a TGI of over 100 µM.
Take `Cc1ccc(OCC2OC(n3cnc4c(Cl)ncnc43)CC2Oc2ccc(C)cc2)cc1` (stereo unspecified): the TGI in test [1] was 68.5 µM and > 79.7 µM; in test [2], over 81.1 µM; in test [3], 11 µM and > 50.4 µM; in [4], > 25 µM and 22.5 µM; in test [5], 24.9 µM and 3.73 µM; in [6], 6.57 µM and 42 µM. In addition, the TGI was 30.5 µM and 34.9 µM in test [7]; 21 µM and 16.4 µM in test [8]; over 22.7 µM in test [9]; 19.4 µM and 74.4 µM in test [10]; 49.5 µM and > 100 µM in test [11]; 17.8 µM and 30.6 µM in test [12]. In test [13], the TGI was over 55.4 µM. Moreover, the GI50 in test [4] is 3.03 µM; in test [5], 11.1 µM and 1.98 µM; in test [6] it was 2.42 µM and 14.3 µM; in [8] it was 5.84 µM and 2 µM; in test [10] it was 6.45 µM and 20.8 µM; in [11], 8.39 µM and 29.2 µM.
With `COc1cc([C@H]2Oc3c(OC)cc(CCCO)cc3[C@@H]2CO)ccc1O`, the TGI in test [1], in test [2], in [3], in test [4], in test [5] and in test [6] was over 100 µM throughout. Also, the TGI in test [7], in [8], in test [9], in [10], in test [11] and in test [12] was over 100 µM throughout. In test [13], this molecule had a TGI of over 100 µM.
In the case of `CCOC(=O)C(NC(=O)CC)(Nc1ccc(S(=O)(=O)Nc2nc(C)cc(C)n2)cc1)C(F)(F)F` (stereo unspecified), the TGI in test [1], in test [2], in test [3], in [4], in [5] and in [6] was over 100 µM in each case. Further, the TGI in test [7], in test [8], in test [9], in test [10], in test [11] and in test [12] was over 100 µM each time. In [13], this molecule had a TGI of over 100 µM.
Regarding `COc1cc(/C=N\NC(=O)C[N+](C)(C)C)cc(OC)c1OC`, the TGI in [1], in test [2], in test [3], in [4], in test [5] and in [6] was over 10 µM throughout. The TGI in test [7], in test [8], in test [9], in test [10], in [11] and in test [12] was over 10 µM in each case. The molecule also registered a TGI in [13] of over 10 µM.
Regarding `C=C(Br)CNCC(=C)Br`, the TGI in test [1], in test [2], in [3], in test [4], in test [5] and in test [6] was over 100 µM each time. Moreover, the TGI in test [7], in [8], in test [9], in test [10], in test [11] and in test [12] was over 100 µM throughout. Besides, the TGI in [13] was over 100 µM.
For the molecule `CCOC(=O)c1c(N2CCOCC2)[nH]c(=O)c(C(c2cccs2)c2c(O)c(C(=O)OCC)c(N3CCOCC3)[nH]c2=O)c1O`, the TGI in test [1], in test [2], in test [3], in test [4], in test [5] and in test [6] was over 100 µM each time. Further, the TGI in [7], in test [8], in test [9], in test [10], in [11] and in test [12] was over 100 µM in each case. The molecule also showed a TGI in test [13] of over 100 µM.
Regarding `CCCCCn1c(=O)c2c(=O)[nH][nH]c2c2ccccc21`, the TGI in [1], in test [2], in [3], in [4], in [5] and in [6] was over 100 µM each time. Besides, the TGI in test [7], in test [8], in test [9], in test [10], in [11] and in test [12] was over 100 µM each time. The TGI in test [13] is over 100 µM.
For the molecule `CC1(C)CC2=C(Sc3ccccc3N2)C(=O)C1C(=O)C(=O)Nc1cc(Cl)ccc1Cl` (stereo unspecified), the TGI in test [1], in [2], in test [3], in test [4], in test [5] and in [6] was over 100 µM in each case. For the same molecule, the TGI in test [7], in test [8], in test [9], in test [10], in [11] and in [12] was over 100 µM in each case. In [13], this molecule came in with a TGI of over 100 µM.
As to `CC(NNC(=O)c1ccncc1)c1ccc(Cl)c(Cl)c1` (stereo unspecified), the TGI in test [1], in test [2], in [3], in test [4], in test [5] and in [6] was over 100 µM each time. Moreover, the TGI in [7], in test [8], in [9], in [10], in test [11] and in test [12] was over 100 µM throughout. The molecule also gave a TGI in [13] of over 100 µM.
For `O=C(N/N=C/c1ccc(Cl)cc1)c1cc(I)cc(I)c1O`, the TGI in test [1], in test [2], in test [3], in test [4], in [5] and in [6] was over 100 µM in each case. The TGI in test [7], in test [8], in test [9], in test [10], in test [11] and in test [12] was over 100 µM in each case. In test [13], the TGI is over 100 µM.
Turning to `O=C1NC2CCCCC2N=C1/C(C(=O)c1ccccc1)=C(\O)c1ccccc1` (stereo unspecified), the TGI in test [1] is over 100 µM; in test [2], 84.8 µM; in test [3], over 100 µM; in test [4] it was over 100 µM; in test [5], over 100 µM; in test [6], over 100 µM. Moreover, the TGI in [7] was over 100 µM; in test [8] it was over 100 µM; in [9], 92.3 µM; in [10], over 100 µM; in [11], over 100 µM; in [12], 83 µM. The TGI in test [13] was over 100 µM.
In the case of `O=C(O)c1cc(Cl)cc2c1NC1(N2)C(=O)Nc2ccccc21` (stereo unspecified), the TGI in test [1], in test [2], in test [3], in test [4], in test [5] and in test [6] was over 100 µM throughout. Besides, the TGI in test [7], in test [8], in test [9], in [10], in [11] and in test [12] was over 100 µM throughout. Further, the TGI in test [13] was over 100 µM.
Consider `Cn1c2c(c3ccccc31)CCN1C(=O)C3SC21C1C(=O)N(c2ccccc2)C(=O)C31` (stereo unspecified), for which the TGI in test [1], in test [2], in test [3], in test [4], in test [5] and in [6] was over 100 µM throughout. Moreover, the TGI is over 73.4 µM in test [7]; over 100 µM in [8]; over 100 µM in test [9]; over 100 µM in test [10]; over 100 µM in test [11]; over 100 µM in [12]. This molecule also displayed a TGI in test [13] of over 100 µM.

Values taken from PubChem BioAssay (NCI).
